Assay results as given in patent US20160051629A1, “INHIBITION OF RIP KINASES FOR TREATING LYSOSOMAL STORAGE DISEASES” (YEDA RESEARCH AND DEVELOPMENT CO. LTD., priority 2013, published 2016).

Tests used:
[1] = in vivo; cited from earlier work
[2] = tested on: Gaucher disease mice; assay: Anakinra (IL-1Ra) treatment of CBE-induced Gaucher disease mice; assay type: in vivo
Procedure: Mice were injected i.p. with 50 mg/kg/day CBE or CBE+IL-1Ra (Anakinra, 75 mg/kg) from 8 days of age. Body weight (FIG. 7A) and life span (FIG. 7B) of mice treated with either CBE only or CBE+Anakinara (n=3).
Gba^flox/flox; mice were crossed with Gba^flox/+; Nestin-Cre mice to generate Gba^flox/flox; Nestin-Cre mice (Enquist, I. B. et al. 2007. Proc. Natl. Acad. Sci. U.S.A. 104, 17483-17488) and Gba^flox/+; Nestin-Cre mice, which served as healthy controls. Genotyping was performed by PCR using genomic DNA extracted from mouse tails or embryonic brains (Farfel-Becker, T. et al. 2009. Hum. Mol. Genet. 18, 1482-1488). Both male and female mice were used. The colony was maintained in the experimental animal center of the Weizmann Institute of Science. All animal experiments were approved by the Weizmann Institute Institutional Animal Care and Use Committee. Mice deficient in galactocerebrosidase (the Twitcher mouse) were used as a model of Krabbe disease (Suzuki. K. & Taniike, M. 1995. Res. Tech. 32, 204-214), mice deficient in the β-subunit of β-hexosaminidase A and B were used as a model of Sandhoff disease (Sango, K. et al. 1995. Nat. Genet. 11, 170-176). Brains from a mouse model of the GM1 gangliosidosis (Hahn, C. N. et al. 1997. Hum. Mol. Genet. 6, 205-211), defective in lysosomal β-galactosidase, and from Niemann-Pick disease Type C1 mice (Pentchev, P. G. et al. 1984. J. Biol. Chem. 259, 5784-5791), defective in the NPC1 gene, were also used. Mice deficient in TNFα (strain B6; 129S6-Tnftm1Gkl/J, The Jackson Laboratory) were provided by Dr. David Wallach (Weizmann Institute, Israel). C57BL/6J (The Jackson Laboratory) mice were injected daily intraperitoneally with 50 mg CBE/kg body weight/day (Kanfer, J. N. et al. 1975. Biochem. Biophys. Res. Commun. 67, 85-90) or with phosphate-buffered saline from 8 days of age.

Molecule	crossing of the blood-brain barrier [1]	half-life [1] [h]	clinical course of Gaucher disease mice ([2]; 50 mg/kg/day CBE i.p. + IL-1Ra (Anakinra, 75 mg/kg) from 8 days of age, FIG. 7)	gain weight (body weight) ([2]; CBE-treated mice, 50 mg/kg/day CBE i.p. + Anakinra 75 mg/kg from 8 days of age, vs CBE only, n=3, FIG. 7A)	life-span ([2]; CBE-treated mice, 50 mg/kg/day CBE i.p. + Anakinra 75 mg/kg from 8 days of age, vs CBE only, n=3, FIG. 7B)
CN1C(=O)C(Cc2c[nH]c3ccccc23)NC1=S (centres unmarked) [Nec-1, necrostatin-1]	crosses the blood-brain barrier	~1			
Anakinra: a recombinant, non-glycosylated version of human IL-1 receptor antagonist, sold under the trade name KINERET (Amgen)			improves the clinical course	improves gain weight	improves
